# Measured values published in patent US10202391B2, “Chemical compounds” (AstraZeneca AB, priority 2015, dated 2019).
# What was measured:
# ERK2 = biological target: T1, ERK2 (Homo sapiens, UniProt P28482); assay: ERK2 Rapidfire Mass Spectrometry Inhibition of Catalysis Assay; assay type: biochemical; conditions: 1.2 nM ERK2, 16 μM Erktide, 120 μM ATP (measured Km), 15 minute pre-incubation; read-out: ERK2 Mass Spectrometry Enzyme IC50
# T1 construct: made in house
# Procedure: (§1) All compounds or DMSO (dimethyl sulphoxide) for the ERK2 Mass Spectrometry and A375 phospho-p90RSK assays were dispensed from source plates containing compounds at 10 mM in 100% (v/v) DMSO or 100% DMSO, directly into assay plates using an Echo 555 Acoustic dispenser (Labcyte Inc™). Depending on the assay, two separate plate preparations were followed. In Workflow A, 10 mM compound stocks were diluted 1:100 using a fixed-tip 96-head Agilent VPrep liquid handler (Agilent Technologies, Santa Clara, Calif.) to give four intermediate dilutions (10 mM, 100 μM, 1 μM, 10 nM). In Workflow B, 10 mM compound stocks were diluted 1:10 using a Tecan Freedom Evo (Tecan Group Ltd., Switzerland), and then 1:100 using the Echo 555 and Labcyte LX to produce three intermediate dilutions across three Labcyte qualified source plates (1 mM, 10 μM, 100 nM). These intermediate dilution plates were then used by the Echo 555 to generate final assay-ready compound plates with a 12 point dose range (10, 3, 1, 0.25, 0.1, 0.03, 0.01, 0.0025, 0.001, 0.0003, 0.0001, 0.0000125 μM) in order to calculate compound IC50s, with a total DMSO concentration in the assay of 1%. For the ERK2 Mass Spectrometry assay Workflow B was used. For the A375 phospho-p90RSK cell assay, the intermediate 1:100 dilution plate described in Workflow A was used by the Echo to dispense compounds and DMSO directly into the cell plates with a 12 point dose range (30, 10, 3.125, 1.25, 0.3, 0.1, 0.03125, 0.0125, 0.003, 0.001, 0.0003125, 0.00003 μM) in order to calculate compound IC50's, with a total DMSO concentration in the assay of 0.3%.
# ERK2 Rapidfire Mass Spectrometry Inhibition of Catalysis Assay
# MEK U911-activated ERK2 protein was expressed and purified in-house. Enzyme and substrate solutions were made up in assay buffer consisting of 50 mM Tris (pH 7.5), 10 mM MgCl2, 0.1 mM EGTA (ethylene glycol tetraacetic acid), 10 mM DTT (dithiothreitol) and 0.01% (v/v) CHAPS (3-[(3-Cholamidopropyl)dimethylammonio]-1-propanesulfonate). 1.2 nM ERK2 protein was prepared in assay buffer and 10 μl was dispensed into each well of a polypropylene, 384-well plate (#781201, Greiner) containing test and reference control compounds. […] The reaction was allowed to progress for 20 minutes at room temperature before being quenched by the addition of 80 al 1% (v/v) formic acid. The assay plates were then run on the RapidFire Mass Spectrometry platform (Agilent) to measure substrate (unphosphorylated Erktide) and product (phosphorylated Erktide) levels. Data was analysed and IC50's (half maximal inhibitory concentration) were calculated using Genedata Screener® software.
# [1] = system: phospho-p90RSK in A375 cell line; assay: A375 Phospho-p90RSK Cellular Assay; assay type: cell-based, human; conditions: Homo sapiens, A375 cells, 2 hours incubation
# Procedure: as §1
# A375 Phospho-p90RSK Cellular Assay
# A375 cells were cultured in cell media composed of DMEM (Dulbecco's modified Eagle's medium), 10% (v/v) Foetal Calf Serum and 1% (v/v) L-Glutamine. After harvesting, cells were dispensed into black, 384-well Costar plates (#3712, Corning) to give 2400 cells per well in a total volume of 40 μl cell media, and were incubated overnight at 37° C., 90% relative humidity and 5% CO2 in a rotating incubator. Test compounds and reference controls were dosed directly into the cell plates using a Labcyte Echo 555 acoustic dispenser. The cell plates were then incubated for 2 hours at 37° C. before being fixed by the addition of 20 μl 12% formaldehyde in PBS/A (4% final concentration), followed by a 20 minute room temperature incubation, and then a 2× wash with 150 μl PBS/A (phosphate buffered saline containing albumin) using a BioTek ELx405 platewasher. Cells were permeabilised with 20 μl 0.1% Triton X-100 in PBS/A for 20 minutes at room temperature, and then washed 1× with 100 μl PBS/A. Primary phospho-p90RSK (Thr359) (D1E9) rabbit monoclonal antibody (#8753, Cell Signaling Technology) was diluted 1:1000 in assay buffer (0.05% (v/v) Tween, 5% (v/v) Foetal Calf Serum, in PBS/A), 20 μl added per well, and plates were incubated at 4° C. overnight. Cell plates were washed 2× with 200 μl PBS/T (phosphate buffered saline containing Tween-20), then 20 μl 1:500 dilution in assay buffer of Alexa Fluor® 647 goat anti-rabbit IgG secondary antibody (#A31573, Molecular Probes, Life Technologies), with a 1:5000 dilution of Hoechst 33342, was added per well. Following a 90 minute incubation at room temperature, plates were washed 2× with 200 μl PBS/T, and 40 μl PBS/A was added per well. Stained cell plates were covered with black lid seals, and then read on a Cellomics ArrayScan™ VTI imaging platform (Thermo Scientific), using an XF53 filter with 10× objective, with a LED light source set-up to analyse nuclear staining with Hoechst 33342 (405 nm) and secondary antibody staining of phospho-p90RSK (647 nm). Data was analysed and IC50's were calculated using Genedata Screener® software.
# T1 sequence (P28482 whole entry): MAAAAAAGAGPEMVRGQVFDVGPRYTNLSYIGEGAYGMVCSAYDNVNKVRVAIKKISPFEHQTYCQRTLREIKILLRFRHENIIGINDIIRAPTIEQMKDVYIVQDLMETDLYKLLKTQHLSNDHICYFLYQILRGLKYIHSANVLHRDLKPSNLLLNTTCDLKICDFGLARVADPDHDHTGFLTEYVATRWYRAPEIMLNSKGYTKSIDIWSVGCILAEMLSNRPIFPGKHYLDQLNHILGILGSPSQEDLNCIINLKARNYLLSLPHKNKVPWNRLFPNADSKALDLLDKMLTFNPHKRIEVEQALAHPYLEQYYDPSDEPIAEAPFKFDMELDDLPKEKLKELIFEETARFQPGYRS
Compound,IC50 (ERK2) [nM],IC50 ([1]; A-375) [nM],"IC50 ([1]; A-375, 2 h) [nM]"
"Cc1cnc(Nc2ccnn2C)nc1-c1cn2c(n1)C(=O)N(Cc1cccc(C(F)F)n1)CC2 [Example 15, 7-((6-(Difluoromethyl)pyridin-2-yl)methyl)-2-(5-methyl-2-((1-methyl-1H-pyrazol-5-yl)amino)pyrimidin-4-yl)-6,7-dihydroimidazo[1,2-a]pyrazin-8(5H)-one]",0.6,150,
"COC[C@@H]1Cn2cc(-c3nc(Nc4ccnn4C)ncc3C)nc2C(=O)N1Cc1ccc(F)c(F)c1 [Example 35, Ethanesulfonic acid adduct of (S)-7-(3,4-difluorobenzyl)-6-(methoxymethyl)-2-(5-methyl-2-((1-methyl-1H-pyrazol-5-yl)amino)pyrimidin-4-yl)-6,7-dihydroimidazo[1,2-a]pyrazin-8(5H)-one]",,93,
"COC[C@H]1Cn2cc(-c3nc(Nc4ccnn4C)ncc3C)nc2C(=O)N1Cc1cccc(Cl)c1 [Example 17, (R)-7-(3-Chlorobenzyl)-6-(methoxymethyl)-2-(5-methyl-2-((1-methyl-1H-pyrazol-5-yl)amino)pyrimidin-4-yl)-6,7-dihydroimidazo[1,2-a]pyrazin-8(5H)-one]",0.9,5.2,
"COC[C@H]1Cn2cc(-c3nc(Nc4ccnn4C)ncc3C)nc2C(=O)N1Cc1cccc(OC)c1 [Example 41, (R)-7-(3-Methoxybenzyl)-6-(methoxymethyl)-2-(5-methyl-2-((1-methyl-1H-pyrazol-5-yl)amino)pyrimidin-4-yl)-6,7-dihydroimidazo[1,2-a]pyrazin-8(5H)-one]",1.5,130,
"Cc1cnc(Nc2ccnn2C)nc1-c1cn2c(n1)C(=O)N(Cc1ccc(F)c(F)c1)CC2 [Example 33, 7-(3,4-Difluorobenzyl)-2-(5-methyl-2-((1-methyl-1H-pyrazol-5-yl)amino)pyrimidin-4-yl)-6,7-dihydroimidazo[1,2-a]pyrazin-8(5H)-one]",0.8,,31
"C[C@H]1Cn2cc(-c3nc(Nc4ccnn4C)ncc3Cl)nc2C(=O)N1Cc1cccc(C(F)F)n1 [Example 9, (S)-2-(5-Chloro-2-((1-methyl-1H-pyrazol-5-yl)amino)pyrimidin-4-yl)-7-((6-(difluoromethyl)pyridin-2-yl)methyl)-6-methyl-6,7-dihydroimidazo[1,2-a]pyrazin-8(5H)-one]",0.5,190,
"Cc1cnc(Nc2ccnn2C)nc1-c1cn2c(n1)C(=O)N(Cc1ccnc(C(F)(F)F)n1)[C@@H](C)C2 [Example 26, (S)-6-methyl-2-(5-methyl-2-((1-methyl-1H-pyrazol-5-yl)amino)pyrimidin-4-yl)-7-((2-(trifluoromethyl)pyrimidin-4-yl)methyl)-6,7-dihydroimidazo[1,2-a]pyrazin-8(5H)-one]",1.1,200,
"Cc1cnc(Nc2ccnn2C)nc1-c1cn2c(n1)C(=O)N(Cc1cccc(C(F)(F)F)n1)[C@@H](C)C2 [Example 27, (S)-6-Methyl-2-(5-methyl-2-((1-methyl-1H-pyrazol-5-yl)amino)pyrimidin-4-yl)-7-((6-(trifluoromethyl)pyridin-2-yl)methyl)-6,7-dihydroimidazo[1,2-a]pyrazin-8(5H)-one]",0.8,77,
"Cc1cccc(CN2CCn3cc(-c4ccnc(Nc5ccnn5C)n4)nc3C2=O)n1 [Example 1, 2-(2-((1-Methyl-1H-pyrazol-5-yl)amino)pyrimidin-4-yl)-7-((6-methylpyridin-2-yl)methyl)-6,7-dihydroimidazo[1,2-a]pyrazin-8(5H)-one]",17.4,17000,
"COc1cccc(CN2C(=O)c3nc(-c4nc(Nc5ccnn5C)ncc4C)cn3C[C@@H]2C)c1 [Example 23, (S)-7-(3-Methoxybenzyl)-6-methyl-2-(5-methyl-2-((1-methyl-1H-pyrazol-5-yl)amino)pyrimidin-4-yl)-6,7-dihydroimidazo[1,2-a]pyrazin-8(5H)-one]",0.6,40,
"C[C@H]1Cn2cc(-c3ccnc(Nc4ccnn4C)n3)nc2C(=O)N1Cc1ccc(F)c(F)c1 [Example 4, (S)-7-(3,4-Difluorobenzyl)-6-methyl-2-(2-((1-methyl-1H-pyrazol-5-yl)amino)pyrimidin-4-yl)-6,7-dihydroimidazo[1,2-a]pyrazin-8(5H)-one]",1.8,630,
"Cc1cccc(CN2C(=O)c3nc(-c4nc(Nc5ccnn5C)ncc4Cl)cn3C[C@@H]2C)n1 [Example 11, (S)-2-(5-chloro-2-((1-methyl-1H-pyrazol-5-yl)amino)pyrimidin-4-yl)-6-methyl-7-((6-methylpyridin-2-yl)methyl)-6,7-dihydroimidazo[1,2-a]pyrazin-8(5H)-one]",0.8,150,
"Cc1cnc(Nc2ccnn2C)nc1-c1cn2c(n1)C(=O)N(Cc1cccc(C(F)F)c1)[C@@H](C)C2 [Example 21, (S)-7-(3-(Difluoromethyl)benzyl)-6-methyl-2-(5-methyl-2-((1-methyl-1H-pyrazol-5-yl)amino)pyrimidin-4-yl)-6,7-dihydroimidazo[1,2-a]pyrazin-8(5H)-one]",0.6,11,
"Cc1cnc(Nc2ccnn2C)nc1-c1cn2c(n1)C(=O)N(Cc1ccc(F)c(F)c1)[C@@H](C)C2 [Example 20, (S)-7-(3,4-Difluorobenzyl)-6-methyl-2-(5-methyl-2-((1-methyl-1H-pyrazol-5-yl)amino)pyrimidin-4-yl)-6,7-dihydroimidazo[1,2-a]pyrazin-8(5H)-one]",0.4,,38
"Cc1cnc(Nc2ccnn2C)nc1-c1cn2c(n1)C(=O)N(Cc1cccc(C(F)F)n1)[C@H](C)C2 [Example 37, (R)-7-((6-(Difluoromethyl)pyridin-2-yl)methyl)-6-methyl-2-(5-methyl-2-((1-methyl-1H-pyrazol-5-yl)amino)pyrimidin-4-yl)-6,7-dihydroimidazo[1,2-a]pyrazin-8(5H)-one]",0.7,64,
"COC[C@H]1Cn2cc(-c3nc(Nc4ccnn4C)ncc3C)nc2C(=O)N1Cc1cccc(C(F)F)n1 [Example 16, (R)-7-((6-(Difluoromethyl)pyridin-2-yl)methyl)-6-(methoxymethyl)-2-(5-methyl-2-((1-methyl-1H-pyrazol-5-yl)amino)pyrimidin-4-yl)-6,7-dihydroimidazo[1,2-a]pyrazin-8(5H)-one]",1.1,120,
"Cc1cnc(Nc2ccnn2C)nc1-c1cn2c(n1)C(=O)N(Cc1cccc(OC(F)F)c1)[C@@H](C)C2 [Example 28, (S)-7-(3-(Difluoromethoxy)benzyl)-6-methyl-2-(5-methyl-2-((1-methyl-1H-pyrazol-5-yl)amino)pyrimidin-4-yl)-6,7-dihydroimidazo[1,2-a]pyrazin-8(5H)-one]",0.5,110,
